Literature values as cited in paper PMC9851200, “Multiparameter phenotypic screening for endogenous TFEB and TFE3 translocation identifies novel chemical series modulating lysosome function” (Autophagy, 2022).

Tests used:
Design in all cases: method as in original PKIS2 published data
[1] = target: kinases (KINOMEscan panel) (Homo sapiens, UniProt P78362); conditions: SRPK2; Published KINOMEscan; ref original PKIS2 published data; cited from earlier work
[2] = target: kinases (KINOMEscan panel) (Homo sapiens, UniProt P21802); conditions: kinase FGFR2; Published KINOMEscan; ref original PKIS2 published data; cited from earlier work
[3] = target: T1, kinases (KINOMEscan panel) (Homo sapiens, UniProt Q9Y2U5); conditions: MAP3K2; Published KINOMEscan; ref original PKIS2 published data; cited from earlier work
T1 sequence (Q9Y2U5 1-619): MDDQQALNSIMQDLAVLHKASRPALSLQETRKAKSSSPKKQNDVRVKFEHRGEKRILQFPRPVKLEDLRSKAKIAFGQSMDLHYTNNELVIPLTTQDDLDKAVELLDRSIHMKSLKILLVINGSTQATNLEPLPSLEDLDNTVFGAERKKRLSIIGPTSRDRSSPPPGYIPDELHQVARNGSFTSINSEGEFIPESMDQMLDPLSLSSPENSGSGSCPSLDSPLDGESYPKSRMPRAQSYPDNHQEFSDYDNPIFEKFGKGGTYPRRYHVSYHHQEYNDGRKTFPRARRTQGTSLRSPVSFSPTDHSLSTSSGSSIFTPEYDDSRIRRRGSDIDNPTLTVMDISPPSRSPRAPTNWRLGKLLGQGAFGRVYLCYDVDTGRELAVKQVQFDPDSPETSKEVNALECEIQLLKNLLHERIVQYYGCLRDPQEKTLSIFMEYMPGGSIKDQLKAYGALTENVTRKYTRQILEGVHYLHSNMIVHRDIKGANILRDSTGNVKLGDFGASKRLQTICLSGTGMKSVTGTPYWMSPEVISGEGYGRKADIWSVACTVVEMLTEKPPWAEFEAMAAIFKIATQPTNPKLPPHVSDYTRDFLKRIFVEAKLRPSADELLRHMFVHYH

[4] = target: T2, kinases (KINOMEscan panel) (Homo sapiens, UniProt Q8N568); conditions: Published KINOMEscan; ref original PKIS2 published data; cited from earlier work
T2 sequence (Q8N568 1-766): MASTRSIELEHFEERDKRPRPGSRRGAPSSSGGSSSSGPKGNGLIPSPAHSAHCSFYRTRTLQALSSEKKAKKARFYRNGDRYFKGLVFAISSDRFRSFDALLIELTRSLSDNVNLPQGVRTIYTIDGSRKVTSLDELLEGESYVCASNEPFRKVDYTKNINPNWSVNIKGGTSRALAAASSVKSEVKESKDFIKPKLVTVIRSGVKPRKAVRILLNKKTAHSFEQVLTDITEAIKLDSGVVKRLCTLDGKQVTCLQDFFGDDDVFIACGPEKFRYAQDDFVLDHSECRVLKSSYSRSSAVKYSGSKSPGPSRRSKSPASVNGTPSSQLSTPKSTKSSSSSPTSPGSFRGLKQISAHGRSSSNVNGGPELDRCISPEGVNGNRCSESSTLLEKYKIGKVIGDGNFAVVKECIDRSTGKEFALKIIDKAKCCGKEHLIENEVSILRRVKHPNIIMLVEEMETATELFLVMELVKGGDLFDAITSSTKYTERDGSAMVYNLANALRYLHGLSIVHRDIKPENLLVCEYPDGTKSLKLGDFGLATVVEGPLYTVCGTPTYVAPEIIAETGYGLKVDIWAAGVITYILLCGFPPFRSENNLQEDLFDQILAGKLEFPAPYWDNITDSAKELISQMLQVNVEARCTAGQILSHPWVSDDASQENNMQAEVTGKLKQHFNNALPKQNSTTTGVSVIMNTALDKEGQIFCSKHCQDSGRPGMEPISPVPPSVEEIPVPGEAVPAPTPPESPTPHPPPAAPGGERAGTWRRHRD

[5] = target: T3, kinases (KINOMEscan panel) (Homo sapiens, UniProt Q9HBY8); conditions: Published KINOMEscan; ref original PKIS2 published data; cited from earlier work
T3 sequence (Q9HBY8 1-367): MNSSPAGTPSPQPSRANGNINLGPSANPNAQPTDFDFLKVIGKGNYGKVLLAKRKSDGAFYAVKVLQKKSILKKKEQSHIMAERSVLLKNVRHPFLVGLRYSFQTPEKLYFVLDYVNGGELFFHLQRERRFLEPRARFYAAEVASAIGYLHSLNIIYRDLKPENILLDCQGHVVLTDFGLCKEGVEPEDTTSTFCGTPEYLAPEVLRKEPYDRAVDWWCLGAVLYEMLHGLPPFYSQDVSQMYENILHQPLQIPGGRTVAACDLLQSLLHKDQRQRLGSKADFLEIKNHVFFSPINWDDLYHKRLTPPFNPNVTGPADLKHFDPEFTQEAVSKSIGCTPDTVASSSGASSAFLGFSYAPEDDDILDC

[6] = target: kinases (KINOMEscan panel) (Homo sapiens, UniProt Q9HCP0); conditions: kinase CSNK1G1; Published KINOMEscan; ref original PKIS2 published data; cited from earlier work
Sequence of kinases (KINOMEscan panel) (Homo sapiens, UniProt Q9HCP0) (Q9HCP0 whole entry): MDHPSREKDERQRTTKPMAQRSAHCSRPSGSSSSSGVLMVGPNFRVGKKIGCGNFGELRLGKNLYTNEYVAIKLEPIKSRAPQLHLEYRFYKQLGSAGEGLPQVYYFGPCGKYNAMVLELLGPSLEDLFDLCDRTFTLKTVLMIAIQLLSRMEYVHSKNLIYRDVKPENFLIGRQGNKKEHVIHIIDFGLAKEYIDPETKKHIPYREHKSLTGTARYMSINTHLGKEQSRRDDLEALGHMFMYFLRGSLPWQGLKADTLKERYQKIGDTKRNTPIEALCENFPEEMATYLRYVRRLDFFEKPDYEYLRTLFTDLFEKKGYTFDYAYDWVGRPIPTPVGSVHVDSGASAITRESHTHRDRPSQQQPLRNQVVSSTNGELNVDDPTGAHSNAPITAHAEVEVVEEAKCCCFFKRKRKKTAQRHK

[7] = target: kinases (KINOMEscan panel) (Homo sapiens, UniProt Q9UKE5); conditions: TNIK; Published KINOMEscan; ref original PKIS2 published data; cited from earlier work
Sequence of kinases (KINOMEscan panel) (Homo sapiens, UniProt Q9UKE5) (Q9UKE5 whole entry): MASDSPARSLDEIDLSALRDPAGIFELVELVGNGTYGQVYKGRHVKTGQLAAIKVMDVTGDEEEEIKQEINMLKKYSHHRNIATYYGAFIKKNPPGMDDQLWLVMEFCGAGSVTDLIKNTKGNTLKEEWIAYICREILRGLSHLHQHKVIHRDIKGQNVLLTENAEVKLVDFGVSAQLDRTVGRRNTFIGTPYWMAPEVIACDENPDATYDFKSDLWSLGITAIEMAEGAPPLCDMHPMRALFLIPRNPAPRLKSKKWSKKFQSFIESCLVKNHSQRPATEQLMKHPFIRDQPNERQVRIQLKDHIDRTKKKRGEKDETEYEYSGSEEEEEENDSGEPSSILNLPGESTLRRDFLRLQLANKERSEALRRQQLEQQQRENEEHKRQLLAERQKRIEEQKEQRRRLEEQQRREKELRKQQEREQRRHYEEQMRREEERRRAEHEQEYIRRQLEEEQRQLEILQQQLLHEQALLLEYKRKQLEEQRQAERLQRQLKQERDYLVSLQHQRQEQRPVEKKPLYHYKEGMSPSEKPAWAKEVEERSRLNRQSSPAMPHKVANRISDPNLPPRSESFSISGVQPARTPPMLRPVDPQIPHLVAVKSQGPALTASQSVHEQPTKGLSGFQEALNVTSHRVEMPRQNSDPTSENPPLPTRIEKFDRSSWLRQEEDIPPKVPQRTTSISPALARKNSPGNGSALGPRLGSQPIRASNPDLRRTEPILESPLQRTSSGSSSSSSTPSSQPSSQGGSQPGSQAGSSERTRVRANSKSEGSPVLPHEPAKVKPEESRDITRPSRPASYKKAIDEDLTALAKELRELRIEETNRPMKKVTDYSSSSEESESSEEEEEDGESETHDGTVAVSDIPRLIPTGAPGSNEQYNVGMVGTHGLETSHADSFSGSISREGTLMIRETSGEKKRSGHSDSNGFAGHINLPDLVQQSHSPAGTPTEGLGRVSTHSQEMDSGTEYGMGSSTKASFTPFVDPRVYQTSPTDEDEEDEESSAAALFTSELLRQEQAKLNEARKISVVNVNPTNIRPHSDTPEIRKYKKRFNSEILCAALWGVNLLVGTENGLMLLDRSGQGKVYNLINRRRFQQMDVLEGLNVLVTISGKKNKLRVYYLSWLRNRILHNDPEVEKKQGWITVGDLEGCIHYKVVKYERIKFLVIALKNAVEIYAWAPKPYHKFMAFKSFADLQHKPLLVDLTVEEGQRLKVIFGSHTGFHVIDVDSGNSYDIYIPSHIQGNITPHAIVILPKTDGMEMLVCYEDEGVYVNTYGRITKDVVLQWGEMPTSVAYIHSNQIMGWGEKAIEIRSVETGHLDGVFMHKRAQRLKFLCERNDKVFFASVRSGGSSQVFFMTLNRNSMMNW

[8] = target: kinases (KINOMEscan panel) (Homo sapiens, UniProt Q96NX5); conditions: CAMK1G; Published KINOMEscan; ref original PKIS2 published data; cited from earlier work
[9] = target: kinases (KINOMEscan panel) (Homo sapiens, UniProt P29597); conditions: Published KINOMEscan, ref original PKIS2 published data, cited from earlier work
Sequence of kinases (KINOMEscan panel) (Homo sapiens, UniProt P29597) (P29597 whole entry): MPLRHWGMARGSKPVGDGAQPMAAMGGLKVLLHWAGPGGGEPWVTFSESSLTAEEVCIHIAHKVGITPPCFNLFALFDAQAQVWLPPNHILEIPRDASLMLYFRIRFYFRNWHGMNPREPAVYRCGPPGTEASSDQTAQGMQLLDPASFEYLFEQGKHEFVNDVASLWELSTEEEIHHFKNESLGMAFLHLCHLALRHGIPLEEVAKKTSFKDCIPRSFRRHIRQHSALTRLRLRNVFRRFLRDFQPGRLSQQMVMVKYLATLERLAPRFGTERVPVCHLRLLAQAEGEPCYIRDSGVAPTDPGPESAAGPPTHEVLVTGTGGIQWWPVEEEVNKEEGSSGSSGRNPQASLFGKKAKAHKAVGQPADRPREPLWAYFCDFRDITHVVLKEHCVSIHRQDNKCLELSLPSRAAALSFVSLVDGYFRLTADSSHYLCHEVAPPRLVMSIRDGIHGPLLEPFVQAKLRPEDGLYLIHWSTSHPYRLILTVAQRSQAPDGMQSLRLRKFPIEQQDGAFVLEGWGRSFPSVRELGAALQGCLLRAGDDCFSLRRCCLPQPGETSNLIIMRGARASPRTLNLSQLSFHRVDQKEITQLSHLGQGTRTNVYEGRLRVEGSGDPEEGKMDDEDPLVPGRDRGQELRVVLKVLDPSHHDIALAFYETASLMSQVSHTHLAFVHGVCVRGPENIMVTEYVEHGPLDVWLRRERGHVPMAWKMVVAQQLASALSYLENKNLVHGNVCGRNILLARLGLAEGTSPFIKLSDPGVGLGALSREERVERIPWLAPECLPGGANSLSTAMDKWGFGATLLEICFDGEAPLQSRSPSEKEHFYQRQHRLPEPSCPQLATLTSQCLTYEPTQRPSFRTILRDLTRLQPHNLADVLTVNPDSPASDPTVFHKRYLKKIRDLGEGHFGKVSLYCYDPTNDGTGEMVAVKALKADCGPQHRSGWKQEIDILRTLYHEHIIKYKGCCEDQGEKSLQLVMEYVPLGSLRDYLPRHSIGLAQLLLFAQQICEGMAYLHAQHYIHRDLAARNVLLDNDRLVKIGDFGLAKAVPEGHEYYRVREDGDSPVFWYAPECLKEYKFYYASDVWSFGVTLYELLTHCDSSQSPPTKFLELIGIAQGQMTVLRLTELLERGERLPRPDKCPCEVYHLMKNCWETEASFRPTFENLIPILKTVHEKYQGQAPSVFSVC

[10] = target: kinases (KINOMEscan panel) (Homo sapiens, UniProt O75716); conditions: kinase STK16; Published KINOMEscan; ref original PKIS2 published data; cited from earlier work
Sequence of kinases (KINOMEscan panel) (Homo sapiens, UniProt O75716) (O75716 whole entry): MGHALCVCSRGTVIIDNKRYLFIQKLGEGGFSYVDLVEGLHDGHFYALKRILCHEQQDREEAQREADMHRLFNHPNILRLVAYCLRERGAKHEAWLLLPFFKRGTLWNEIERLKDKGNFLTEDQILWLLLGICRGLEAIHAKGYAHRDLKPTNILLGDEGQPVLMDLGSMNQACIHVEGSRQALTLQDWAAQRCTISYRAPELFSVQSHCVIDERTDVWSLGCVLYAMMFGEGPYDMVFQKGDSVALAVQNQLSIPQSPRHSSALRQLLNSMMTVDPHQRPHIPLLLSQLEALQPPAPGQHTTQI

[11] = target: kinases (KINOMEscan panel) (Homo sapiens, UniProt P80192); conditions: Published KINOMEscan; ref original PKIS2 published data; cited from earlier work
Sequence of kinases (KINOMEscan panel) (Homo sapiens, UniProt P80192) (P80192 whole entry): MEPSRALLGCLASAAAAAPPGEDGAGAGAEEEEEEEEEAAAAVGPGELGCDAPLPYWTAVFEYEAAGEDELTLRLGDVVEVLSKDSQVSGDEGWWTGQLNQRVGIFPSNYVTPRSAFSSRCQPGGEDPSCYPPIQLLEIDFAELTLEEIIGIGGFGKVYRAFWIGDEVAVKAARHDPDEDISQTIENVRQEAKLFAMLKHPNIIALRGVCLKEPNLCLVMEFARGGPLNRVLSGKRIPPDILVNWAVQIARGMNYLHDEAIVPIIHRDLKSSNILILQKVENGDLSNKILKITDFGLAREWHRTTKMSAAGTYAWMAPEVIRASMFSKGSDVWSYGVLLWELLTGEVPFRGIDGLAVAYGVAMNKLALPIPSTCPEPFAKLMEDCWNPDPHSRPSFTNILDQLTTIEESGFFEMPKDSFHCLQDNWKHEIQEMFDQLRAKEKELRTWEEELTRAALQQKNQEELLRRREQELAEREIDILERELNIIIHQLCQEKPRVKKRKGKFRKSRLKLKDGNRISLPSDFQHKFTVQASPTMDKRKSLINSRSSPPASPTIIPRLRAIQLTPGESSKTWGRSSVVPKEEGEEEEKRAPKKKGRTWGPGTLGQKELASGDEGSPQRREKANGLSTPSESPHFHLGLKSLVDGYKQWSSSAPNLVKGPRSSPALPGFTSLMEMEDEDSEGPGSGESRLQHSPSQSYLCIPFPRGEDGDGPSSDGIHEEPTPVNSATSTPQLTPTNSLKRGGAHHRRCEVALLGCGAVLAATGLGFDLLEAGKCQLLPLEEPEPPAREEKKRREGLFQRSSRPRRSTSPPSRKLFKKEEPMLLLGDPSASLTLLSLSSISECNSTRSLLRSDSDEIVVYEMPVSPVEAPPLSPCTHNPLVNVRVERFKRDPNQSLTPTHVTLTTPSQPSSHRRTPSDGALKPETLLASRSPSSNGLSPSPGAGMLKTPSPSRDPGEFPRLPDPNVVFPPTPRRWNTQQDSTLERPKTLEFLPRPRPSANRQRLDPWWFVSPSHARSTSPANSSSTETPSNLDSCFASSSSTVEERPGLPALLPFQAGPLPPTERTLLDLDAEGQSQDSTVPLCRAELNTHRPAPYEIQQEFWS

[12] = target: kinases (KINOMEscan panel) (Homo sapiens, UniProt P19784); conditions: CSNK2A2; Published KINOMEscan; ref original PKIS2 published data; cited from earlier work
Sequence of kinases (KINOMEscan panel) (Homo sapiens, UniProt P19784) (P19784 whole entry): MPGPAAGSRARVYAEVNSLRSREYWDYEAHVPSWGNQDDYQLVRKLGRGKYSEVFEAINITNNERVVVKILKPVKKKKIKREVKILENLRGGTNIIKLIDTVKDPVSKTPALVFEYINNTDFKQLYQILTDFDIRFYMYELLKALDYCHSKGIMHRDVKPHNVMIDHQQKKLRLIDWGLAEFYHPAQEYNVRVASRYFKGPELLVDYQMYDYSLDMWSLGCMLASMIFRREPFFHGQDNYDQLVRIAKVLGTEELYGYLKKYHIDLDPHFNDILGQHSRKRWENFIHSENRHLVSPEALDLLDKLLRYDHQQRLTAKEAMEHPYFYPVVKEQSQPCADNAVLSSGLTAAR

## Cc1cccc(-c2nc(Nc3ccncc3)c3ccccc3n2)n1 [NK215]
[1]
  KINOMEscan SRPK2: 54
[2]
  KINOMEscan FGFR2: 7
[3]
  KINOMEscan MAP3K2: 0
[4]
  KINOMEscan DCLK2: 0
[5]
  KINOMEscan SGK2: 0
[6]
  KINOMEscan CSNK1G1: 0
[7]
  KINOMEscan TNIK: 29
[8]
  KINOMEscan CAMK1G: 0
[9]; TYK2(JH2domain-pseudokinase)
  KINOMEscan TYK2(JH2domain-pseudokinase): 40
[9]; kinase TYK2(JH1domain-catalytic)
  KINOMEscan TYK2(JH1domain-catalytic): 8
[10]
  KINOMEscan STK16: 7
[11]
  KINOMEscan MAP3K9: 11
[12]
  KINOMEscan CSNK2A2: 0
